Values of other authors as cited in patent publication US20220000907A1, “MOUTHWASH/GARGLE, NASAL/ORAL/NASAL SPRAY COVID AND BACTERIOCIDE ARRANGEMENT” (priority 2020, published 2022).

What was measured:
[1] = system: all seven classes of viral organisms
microbes = details: 1.0% PVPI solution gives 0.1% available iodine

polyvinylpyrrolidone iodine [PVPI]
effectiveness against all classes of viruses (I-VII) ([1]; PVPI in solution): effective
inactivation of all classes of viruses ([1]; effective concentration of 0.1% available iodine): inactivated
most effective antimicrobial concentration of PVPI (peak of bell curve of microbial killing) (microbes): 1%
